How the values were obtained:
[1] = tested on: adipose tissue-derived stem cells; assay: Western Blot of p21 and CDK2 proteins, normal vs high oxygen; format: cell-based, human; conditions: high oxygen environment (37.5%); FIG. 4B
Text: The culture conditions of the adipose tissue-derived stem cell are divided into four groups as described in the aforementioned section 5. The Western Blot Analysis is used for the analysis to observe the effect of the controlling and adjusting the cell cycle related proteins of the adipose tissue-derived stem cells cultured in different culture conditions on the protein expression of the cell cycle related proteins (such as p21 and CDK2). Similarly, the expression of the β-actin protein is used as a control for the standardization of quantifying each aforementioned protein expression into data.

[2] = tested on: adipose tissue-derived stem cells; assay: Cell growth density analysis, normal vs high oxygen environment; format: cell-based, human; conditions: high oxygen environment (37.5%), seventh day; FIG. 4A
Text: In this experiment, the culture conditions are divided into four groups, respectively: a culture group with a basic medium and FGF-2 in a normal oxygen environment, a culture group with a basic medium and FGF-2 in a high oxygen environment, a culture group with a basic medium and the adjuvant of the present invention in a normal oxygen environment, and a culture group with a basic medium and the adjuvant of the present invention in a high oxygen environment, wherein the high oxygen environment refers to a partial pressure of oxygen approximately equal to 37.5%, and parameters of the culture conditions (such as a basic medium, an incubator and a cell culture density) are the same as described in Section 1 of the aforementioned Experiment 1.
The cells are cleaned once by a phosphate buffer solution (PBS), and then reacted with a Trypsin-EDTA solution at 37 degrees Celsius for 5 minutes, and then the cell spatula is used to remove incompletely reacted cells carefully, and the same proportion of a medium containing a fetal bovine serum is used for neutralizing the enzyme activity of trypsin. The number of cells is measured by a cell counter (Vi-CELL AS, Beckman Coulter). […] Each set of experiment data is measured for three times, and the result is expressed in term of mean± standard deviation.

## FGF-2: basic fibroblast growth factor, concentration of 10 ng/mL (R&D Systems), comparison culture additive
[1]
  expression of the p21 protein: significant increase of the expression of the p21 protein
[2]
  total number of cells: below 2.5×10^6

— patent US10465167B2, “Adjuvant for rapid proliferation of human mesenchymal stem cells in vitro, method for rapid proliferation of human mesenchymal stem cells in vitro, method for growth factor harvested from rapid proliferation of human mesenchymal stem cells in vitro and use thereof” (BUDDHIST TZU CHI MEDICAL FOUNDATION, priority 2013, dated 2019)
